Results taken from patent US4327088A, “Phosphonooxy- or glycosyloxy-substituted acrylophenones, compositions and uses thereof” (priority 1979, dated 1982).
≈ marks a conversion by molar mass, not a printed value. Read-outs that look alike come from different tables or passages of the source.

What was measured:
rhinovirus HGP = test: Inhibition of viral cytopathogenic effect (rhinovirus HGP in HeLa cells); type: cell-based; settings: Enterovirus, 48 h, read-out: Minimal Inhibitory Concentration against rhinovirus HGP
Description: Inhibition of viral cytopathogenic effect
A suspension of HeLa cells (6×10^4) was mixed with rhinovirus HGP (3×10^3 PFU) (plaque forming units) and was plated in a microtest plate where serially diluted compounds to be tested were contained. The cells were then cultured with Eagle's minimum essential medium containing 2% calf serum, 1% tryptose phosphate broth, 100 μg/ml of streptomycin sulfate and 20 unit/ml of penicillin G. Viral c.p.e. (cytopathogenic effect) was observed by a microscope after 2 days culture at 33° C
The antiviral activity of the tested compounds is expressed by the minimal inhibitory concentration at which dose viral c.p.e. is inhibited by 50% as compared to the control culture.

Acute toxicity in mice = test: Acute toxicity in mice; design: species or system ddy mice; settings: mouse, in vivo, day 21
Coxsackie virus B1 = test: Antiviral activity against lethal infection of Coxsackie virus B1 in mice; type: in vivo, ddy mice; settings: up to 21 days
Description: The antiviral activities of compounds of the invention were tested against lethal infection of Coxsackie virus B1 in mice. ddy Mice weighing about 15 g were infected intraperitoneally (i.p.) by about LD50 of the virus. The infected mice were then administered 4 times with the compounds either by oral (p.o.) or intravenous (i.v.) route at -2, 7, 22 and 31 hrs. after infection. The survivals were recorded up to 21 days.

[1] = ip, i.p. single dose, ddy mice 15 ~ 20 g, dissolved in dimethylsulfoxide, read-out: LD50, i.p. route
[2] = po, ddy mice, suspended in 0.5% carboxymethyl cellulose, read-out: LD50, p.o. route

## COc1cc(OC)c(C(=O)/C=C/c2ccc(SC)cc2)c(OP(=O)(O)O)c1 [2',4'-dimethoxy-4-(methylthio)-6'-(phosphonooxy)chalcone]
Rhinovirus HGP
  IC50: 0.02 µg/mL (≈ 0.0487 µM)
Acute toxicity in mice; [1]
  LD50 at 504 h: > 500 mg/kg
Acute toxicity in mice; [2]
  LD50 at 504 h: > 1000 mg/kg
Solubility in water
  soluble in water: soluble in water

## COc1ccc(/C=C/C(=O)c2c(OC)cc(OC)cc2OC(=O)c2ccc(OC)cc2)cc1 [2',4,4'-trimethoxy-6'-(4-methoxybenzoyloxy)chalcone]
Rhinovirus HGP
  IC50: 0.03 to 0.1 µg/mL (≈ 0.0669 to 0.223 µM)
Acute toxicity in mice; [1]
  LD50 at 504 h: > 500 mg/kg
Acute toxicity in mice; [2]
  LD50 at 504 h: > 1000 mg/kg

## COc1cc(OC)c(C(=O)/C=C/c2cccs2)c(OP(=O)(O)O)c1 [2',4'-dimethoxy-6'-(phosphonooxy)-3-(2-thienyl)acrylophenone]
Rhinovirus HGP
  IC50: 0.04 to 0.1 µg/mL (≈ 0.108 to 0.27 µM)
Acute toxicity in mice; [1]
  LD50 at 504 h: > 500 mg/kg
Acute toxicity in mice; [2]
  LD50 at 504 h: > 1000 mg/kg
Solubility in water
  soluble in water: soluble in water

## COc1cc(OC)c(C(=O)/C=C/c2ccc3c(c2)OCO3)c(OP(=O)(O)O)c1 [2',4'-dimethoxy-3,4-(methylenedioxy)-6'-(phosphonooxy)chalcone]
Rhinovirus HGP
  IC50: 0.06 µg/mL (≈ 0.147 µM)
Acute toxicity in mice; [1]
  LD50 at 504 h: > 500 mg/kg
Acute toxicity in mice; [2]
  LD50 at 504 h: > 1000 mg/kg
Solubility in water
  soluble in water: soluble in water

## COc1ccc(/C=C/C(=O)c2c(OC)cc(OC)cc2O[C@@H]2O[C@H](COC(C)=O)[C@@H](OC(C)=O)[C@H](OC(C)=O)[C@H]2NC(C)=O)cc1 [2'-(2-acetamido-2-deoxy-3,4,6-tri-O-acetyl-β-D-glucopyranosyloxy)-4,4',6'-trimethoxychalcone]
Rhinovirus HGP
  IC50: 0.1 to 0.3 µg/mL (≈ 0.155 to 0.466 µM)
Acute toxicity in mice; [1]
  LD50 at 504 h: > 500 mg/kg
Acute toxicity in mice; [2]
  LD50 at 504 h: > 2000 mg/kg

## COc1cc(O)c(C(=O)/C=C/c2ccc3[nH]cnc3c2)c(OC)c1 [3-(5-benzimidazolyl)-2'-hydroxy-4',6'-dimethoxyacrylophenone]
Rhinovirus HGP
  IC50: 0.1 to 0.3 µg/mL (≈ 0.308 to 0.925 µM)
Acute toxicity in mice; [1]
  LD50 at 504 h: > 100 mg/kg
Acute toxicity in mice; [2]
  LD50 at 504 h: > 1000 mg/kg

## COc1ccc(/C=C/C(=O)c2c(OC)cc(OC)cc2OC(=O)c2ccc(OC)cc2OC)cc1 [2'-(2,4-dimethoxybenzoyloxy)-4,4',6'-trimethoxychalcone]
Rhinovirus HGP
  IC50: 0.03 to 0.1 µg/mL (≈ 0.0627 to 0.209 µM)
Acute toxicity in mice; [1]
  LD50 at 504 h: > 500 mg/kg
Acute toxicity in mice; [2]
  LD50 at 504 h: > 1000 mg/kg

## CCOc1cc(OC)cc(OP(=O)(O)O)c1C(=O)/C=C/c1ccc(OC)cc1 [2'-ethoxy-4,4'-dimethoxy-6'-(phosphonooxy)chalcone]
Coxsackie virus B1; 40 mg/kg × 4 p.o.
  % Survival: 30%
Rhinovirus HGP
  IC50: 0.02 µg/mL (≈ 0.049 µM)
Acute toxicity in mice; [1]
  LD50 at 504 h: > 500 mg/kg
Acute toxicity in mice; [2]
  LD50 at 504 h: > 1000 mg/kg
Solubility in water
  soluble in water: soluble in water

## COCOc1ccc(/C=C/C(=O)c2c(O)cc(OC)cc2OC)cc1 [2'-hydroxy-4',6'-dimethoxy-4-(methoxymethoxy)chalcone]
Rhinovirus HGP
  IC50: 0.03 to 0.1 µg/mL (≈ 0.0871 to 0.29 µM)
Acute toxicity in mice; [1]
  LD50 at 504 h: > 500 mg/kg
Acute toxicity in mice; [2]
  LD50 at 504 h: > 1000 mg/kg

## COc1cc(O)c(C(=O)/C=C/c2ccc(OC(C)=O)cc2)c(OC)c1 [4-acetoxy-2'-hydroxy-4',6'-dimethoxychalcone]
Rhinovirus HGP
  IC50: 0.3 µg/mL (≈ 0.876 µM)
Acute toxicity in mice; [1]
  LD50 at 504 h: > 500 mg/kg
Acute toxicity in mice; [2]
  LD50 at 504 h: > 1000 mg/kg

## COc1cc(OC)c(C(=O)/C=C/c2ccc(C)cc2)c(OP(=O)(O)O)c1 [2',4'-dimethoxy-4-methyl-6'-(phosphonooxy)chalcone]
Rhinovirus HGP
  IC50: 0.02 µg/mL (≈ 0.0529 µM)
Acute toxicity in mice; [1]
  LD50 at 504 h: > 500 mg/kg
Acute toxicity in mice; [2]
  LD50 at 504 h: > 2000 mg/kg
Solubility in water
  soluble in water: soluble in water

## COc1ccc(/C=C/C(=O)c2c(OC)cc(OC)cc2OP(=O)(O)O)cc1 [2',4,4'-trimethoxy-6'-(phosphonooxy)chalcone]
Coxsackie virus B1; 5 mg/kg × 4 i.v.
  % Survival: 20%
Coxsackie virus B1; 10 mg/kg × 4 i.v.
  % Survival: 60%
Coxsackie virus B1; 20 mg/kg × 4 p.o.
  % Survival: 10%
Coxsackie virus B1; 40 mg/kg × 4 p.o.
  % Survival: 50%
Coxsackie virus B1; 80 mg/kg × 4 p.o.
  % Survival: 70%
Rhinovirus HGP
  IC50: 0.03 to 0.1 µg/mL (≈ 0.0761 to 0.254 µM)
Acute toxicity in mice; [1]
  LD50 at 504 h: > 500 mg/kg
Acute toxicity in mice; [2]
  LD50 at 504 h: > 1000 mg/kg
Solubility in water
  soluble in water: soluble in water

## COc1ccc(/C=C/C(=O)c2c(OC)cc(OC)cc2OC(=O)OCc2ccccc2)cc1 [2'-(benzyloxycarbonyloxy)-4,4',6'-trimethoxychalcone]
Rhinovirus HGP
  IC50: 0.01 to 0.03 µg/mL (≈ 0.0223 to 0.0669 µM)
Acute toxicity in mice; [1]
  LD50 at 504 h: > 500 mg/kg
Acute toxicity in mice; [2]
  LD50 at 504 h: > 1000 mg/kg

## COc1ccc(/C=C/C(=O)c2c(OC)cc(OC)cc2OC(=O)c2ccccc2)cc1 [2'-(benzoyloxy)-4,4',6'-trimethoxychalcone]
Rhinovirus HGP
  IC50: 0.03 to 0.1 µg/mL (≈ 0.0717 to 0.239 µM)
Acute toxicity in mice; [1]
  LD50 at 504 h: > 500 mg/kg
Acute toxicity in mice; [2]
  LD50 at 504 h: > 1000 mg/kg

## CCOc1ccc(/C=C/C(=O)c2c(OC)cc(OC)cc2OP(=O)(O)O)cc1 [4-ethoxy-2',4'-dimethoxy-6'-(phosphonooxy)chalcone]
Rhinovirus HGP
  IC50: 0.006 to 0.02 µg/mL (≈ 0.0147 to 0.049 µM)
Acute toxicity in mice; [1]
  LD50 at 504 h: > 500 mg/kg
Acute toxicity in mice; [2]
  LD50 at 504 h: > 1000 mg/kg
Solubility in water
  soluble in water: soluble in water

## COc1ccc(/C=C/C(=O)c2c(OC)cc(OC)cc2OC(=O)c2ccco2)cc1 [2'-(furoyloxy)-4,4',6'-trimethoxychalcone]
Rhinovirus HGP
  IC50: 0.03 µg/mL (≈ 0.0735 µM)
Acute toxicity in mice; [1]
  LD50 at 504 h: > 500 mg/kg
Acute toxicity in mice; [2]
  LD50 at 504 h: > 1000 mg/kg

## CC[N+](CC)(CC)CC(=O)Oc1cc(OC)cc(OC)c1C(=O)/C=C/c1ccc(OC)cc1.[Cl-] [2',4,4'-trimethoxy-6'-(triethylammonioacetoxy) chalcone chloride]
Rhinovirus HGP
  IC50: 0.01 µg/mL
Acute toxicity in mice; [1]
  LD50 at 504 h: 180 mg/kg
Acute toxicity in mice; [2]
  LD50 at 504 h: > 1000 mg/kg
Solubility in water
  soluble in water: soluble in water

## CCOc1cc(OC)c(C(=O)/C=C/c2ccc(OC)cc2)c(OP(=O)(O)O)c1 [4'-ethoxy-2',4-dimethoxy-6'-(phosphonooxy)chalcone]
Rhinovirus HGP
  IC50: 0.03 µg/mL (≈ 0.0735 µM)
Acute toxicity in mice; [1]
  LD50 at 504 h: > 500 mg/kg
Acute toxicity in mice; [2]
  LD50 at 504 h: > 2000 mg/kg
Solubility in water
  soluble in water: soluble in water

## COc1ccc(/C=C/C(=O)c2c(OC)cc(OC)cc2O[C@@H]2O[C@H](CO)[C@@H](O)[C@H](O)[C@H]2NC(C)=O)cc1 [2'-(2-acetamido-2-deoxy-β-D-glucopyranosyloxy)-4,4',6'-trimethoxychalcone]
Rhinovirus HGP
  IC50: 3 to 10 µg/mL (≈ 5.8 to 19.3 µM)
Acute toxicity in mice; [1]
  LD50 at 504 h: > 300 mg/kg
Acute toxicity in mice; [2]
  LD50 at 504 h: > 2000 mg/kg
Solubility in water
  soluble in water: soluble in water

## COc1cc(OC)c(C(=O)/C=C/c2ccc(C)o2)c(OP(=O)(O)O)c1 [2',4'-dimethoxy-3-(5-methyl-2-furyl)-6'-(phosphonooxy)acrylophenone]
Rhinovirus HGP
  IC50: 0.04 to 0.1 µg/mL (≈ 0.109 to 0.272 µM)
Acute toxicity in mice; [1]
  LD50 at 504 h: > 500 mg/kg
Acute toxicity in mice; [2]
  LD50 at 504 h: > 1200 mg/kg
Solubility in water
  soluble in water: soluble in water
